# Measurements reported in patent US6492124B1, “Trance activated signal transduction pathways in osteoclasts” (The Rockefeller University, priority 1999, dated 2002).
# How the values were obtained:
# PKB = PKB activation in osteoclasts (phospho-PKB Western blot); assay type: cell-based, mouse
# Method: FIG. 1. […] (A) Mature bone marrow-derived osteoclasts were stimulated for the indicated times with recombinant hCD8-TRANCE (TRANCE; 1 μg/ml). Levels of phosphorylated forms of p44/p42 ERK (p44 ERK^P and p42 ERK^P), IκBα (IκB-α^P) and PKB (PKB^P) in whole cell extracts were determined using phospho-peptide-specific antibodies as indicated in the figure. […] (B) as in (A) except the use of mature bone marrow-derived dendritic cells instead of osteoclasts.
# FIG. 2. […] (A) Osteoclasts were serum starved and then pretreated for 90 min with LY294002 (10 μM), Herbimycin A (Herb. A; 10 μM), and PP1 (10 μM) inhibitors which are specific for PI3-kinase, PTKs, and Src-family kinases, respectively, were stimulated for indicated times with TRANCE (1 μg/ml). Levels of phosphorylated p44/p42 ERK, PKB, and IκB-α were determined as described in FIG. 1. Cells pretreated with vehicle (DMSO) were used as a negative control. (B) as in (A) except the use of mature bone marrow-derived dendritic cells.
# Primary cells and cell lines. […] In brief, bone marrow cells from tibiae and femur of 4-6 week old mice (C57BL/6, Jackson Laboratories) were cultured overnight in media (α-MEM, 10% FCS) in the presence of CSF-1 (5 ng/ml). […] For experiments described in this study, only adherent cells were used after extensive washing. […] After allowing them adhere for 2 hours to a tissue culture dish, contaminating floater cells were washed away and mature dendritic cells were obtained by overnight culture.
# Cell stimulation, cell transfection and in vitro assays. In vitro differentiated mature dendritic cells, macrophages and osteoclasts were washed to remove exogenous growth factors, cultured in media with low serum (0.5% FCS, 6 hours), then stimulated by adding various cytokines in the presence or absence of inhibitors for various times as indicated. After stimulation, the cells were washed in ice-cold PBS, and subjected to Western blot analysis or immunoprecipitation as described below.
# All cells were harvested and lysed in extraction buffer (20 mM HEPES NaOH (pH 7.4), 150 mM NaCl, 1% Triton X-100, 10% glycerol, 10 mM EDTA, 1 mM Na3VO4, 1 mM phenylmethylsulfonylfluoride, 1 μg/ml leupeptin, and 0.1 U of aprotinin per ml) and cleared by centrifugation to obtain whole cell extracts. Protein assays were performed to ensure equal amounts of lysates were used in each sample.
# [1] = biological target: T1, TRANCE-R signaling complex (Mus musculus, UniProt O35305); assay: TRANCE-R immunoprecipitation from dendritic cells: co-precipitated TRAF6/c-Src and SAM68 kinase assay; assay type: cell-based
# T1 construct: the endogenous TRANCE-R was immunoprecipitated from the extracts (2 mg of total protein); endogenous in cells; host or cells: mature bone marrow-derived dendritic cells of C57BL/6 mice
# Method: FIG. 5. Ligand dependant recruitment of endogenous TRAF6 and c-Src proteins to the TRANCE-R signaling complex. (A) Dendritic cells were stimulated with TRANCE (1 μg/ml) for the indicated times, lysed, and c-Src was immunoprecipitated from the extracts (400 μg total protein), using an anti-c-Src-specific monoclonal antibody (327). PTK activity of the c-Src immunoprecipitates was measured by in vitro kinase assays using SAM68 as a PTK substrate. The degree of SAM68 phosphorylation (SAM68^P) was determined by Western blot analysis using a phospho-tyrosine specific antibody (4G10) followed by densitometry. (B) Dendritic cells (3×10^7) were treated with TRANCE (1 μg/ml) for 5 minutes or left untreated (0 minutes). […] The degree of SAM68 phosphorylation (SAM68^P) was determined as in (A). The presence of endogenous TRAF6 or c-Src in the remaining α-TRANCE-R immunoprecipitates (IP) were analyzed by Western blotting using TRAF6 (H-274) and c-Src specific antibodies (N16), respectively, as indicated. […]
# For the in vitro kinase-assays in FIGS. 3A, 4D, and 5B the beads were washed twice with extraction buffer and three times with kinase buffer (30 mM HEPES.NaOH (pH 7.4), 20 mM MgCl2, 2 mM MnCl2, 1 mM dithiothreitol). […] Phosphorylation of SAM68 was detected by autoradiography or by probing Western blots with 4G10. […]
substance,measurement,setting,value
TNF-related activation-induced cytokine [TRANCE],activation of PKB in c-Src−/− osteoclasts compared with wild-type,"PKB; TRANCE 5 μg/ml, 10 min",substantially reduced
same,time by which PKB activity subsided,"PKB; osteoclasts, TRANCE stimulation",≤ 60 min
same,phosphorylated form of PKB upon TRANCE stimulation,"PKB; osteoclasts, after 5 minutes, TRANCE 1 μg/ml",increase
same,TRAF6 and c-Src in the TRANCE-R complex,[1]; TRANCE 1 μg/ml 5 minutes vs untreated,readily detected
same,PTK activity of the receptor complex towards SAM68,"[1]; TRANCE 1 μg/ml 5 minutes, in vitro kinase assay",acquired PTK activity
